Like-named read-outs stand apart in the source and are kept apart here. Starred links: 1 amine or outer side, 2 acyl side, 3 side chain; linkers in the order of their positions; H or OH if unused. Positions of bridges follow the written chain, without caps; N, C: chain ends. Non-standard residues stand in square brackets, D forms with d. Residues, ends and D or L forms follow the SMILES beside them. Chains are numbered I, II in the order given. *: point of attachment. Actinocin(9to1) = Cc1c2oc3c(C)ccc(C(=O)[*:1])c3nc-2c(C(=O)[*:2])c(N)c1=O; X1 = COC(=O)C[C@H](N*)C(=O)COc1c(F)cccc1F; Sta = CC(C)C[C@H](N)[C@@H](O)CC(=O)O; Quinaldoyl = O=C(c1ccc2ccccc2n1)*; NMeV = CN[C@H](C(=O)O)C(C)C; Isovaleryl = CC(C)CC(=O)*; Cbz = O=C(OCc1ccccc1)*; Sar = CNCC(=O)O; CH2F = FC*

Assay [1] concerns primary cortical neurons. It counts as cell-based.
For assay [2], the system named is Jurkat cells. In words: VP16-induced cell death of Jurkat cells, cytoprotection assay. The settings on record: VP16 10 μM, 7-8 hrs; inhibitors 50 μM. It is filed as cell-based, human.
Assay [3] deals with T1, human recombinant caspase-2 (Homo sapiens, UniProt P42575).
T1 construct: purchased BIOMOL
T1 sequence (P42575 170-325 limits assumed): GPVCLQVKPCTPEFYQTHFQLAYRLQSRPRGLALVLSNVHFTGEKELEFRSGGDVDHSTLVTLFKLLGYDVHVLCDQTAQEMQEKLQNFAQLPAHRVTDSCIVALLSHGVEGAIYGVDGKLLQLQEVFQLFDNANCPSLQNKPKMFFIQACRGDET
T1 sequence (P42575 348-452 limits assumed): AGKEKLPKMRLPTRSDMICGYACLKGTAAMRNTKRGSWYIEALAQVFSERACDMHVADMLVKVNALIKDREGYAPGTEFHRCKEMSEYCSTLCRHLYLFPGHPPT
Put plainly: In vitro VDVAD-AMC cleavage by recombinant caspase-2. It is filed as biochemical. The conditions noted are these: inhibitor 2 μM, 50 μM VDVAD-AMC, caspase-2 125 U, 30 min at 37° C.
Procedure: Activity of human recombinant caspase-2 (BIOMOL QuantiZyme™ Assay System) was assessed in 100 μl assay buffer (50 mM HEPES, pH 7.4, 100 mM NaCl, 0.1% CHAPS, 10 mM DTT, 1 mM EDTA, 10% glycerol).

In assay [4] the test system is primary cortical neurons. In words: Real-time FC and fixed-time FM detection of ΔΨm and PMP in neurons treated with neurotoxic molecules. It is filed as cell-based, mouse. The conditions noted are these: for ΔΨm and PMP state of non-trypsinized neurons (FM): FM co-detection JC-1/7-AAD, 45 minutes (mClCCP 100 μM, 30 min).
For assay [5], the system named is neonatal ischemic brain injury in 7 day-old rats.
Where [6] appears, read: SD model, compound added at the start of SD at the concentration of column '[ ], μM' (first concentration/target where two are printed).

In the case of `O=C(NC(Cc1ccccc1)C(=O)NC(Cc1ccccc1)C(=O)CF)OCc1ccccc1` (stereo not drawn) [z-FF-fmk, N-benzyloxycarbonyl-Phe-Phe-fluoromethylketone] (Cbz-Phe-Phe-CH2F; configuration not given here), the Survival result in assay [1] (setting [6]) is given as “No”.
For `C[C@@H]1C[C@@H]([C@H](O)CC2CC(=O)NC(=O)C2)C(=O)[C@@H](C)C1` [Cycloheximide], in assay [1], the “survival / protection of SD-neurons against cell death (apoptosis hallmarks overall)” value (“survival / protection of SD-neurons” below) was “promote survival”. Further, the Survival result in assay [1] (setting [6]) is reported as “Yes”. Also, in assay [2], the “terminal nuclear alterations and PMP in VP16-treated Jurkat cells” value is recorded as “prevent neither ΔΨm loss nor PMP”; the “ΔΨm loss in VP16-treated Jurkat cells” value is “prevent neither ΔΨm loss nor PMP”.
Regarding `CC(C)CC(=O)N[C@H](C(=O)N[C@H](C(=O)N[C@@H](CC(C)C)[C@@H](O)CC(=O)N[C@@H](C)C(=O)N[C@@H](CC(C)C)[C@@H](O)CC(=O)O)C(C)C)C(C)C` [Pepstatin] (Isovaleryl-VV[Sta]A[Sta]-OH), the Survival result in assay [1] (setting [6]) is “No”.
For the compound `CC(=O)N[C@H](C(=O)N[C@@H](CC(=O)O)C(=O)N[C@H](C(=O)N[C@@H](C)C(=O)N[C@H](C=O)CC(=O)O)C(C)C)C(C)C` [Ac-VDVAD-Cho] (Ac-VDVAD-aldehyde), in assay [3], the “inhibition of VDVAD-AMC cleavage by recombinant caspase-2” value is listed as “blocked”.
Turning to `Cc1c2oc3c(C)ccc(C(=O)N[C@@H]4C(=O)N[C@H](C(C)C)C(=O)N5CCC[C@H]5C(=O)N(C)CC(=O)N(C)[C@@H](C(C)C)C(=O)O[C@@H]4C)c3nc-2c(C(=O)N[C@@H]2C(=O)N[C@H](C(C)C)C(=O)N3CCC[C@H]3C(=O)N(C)CC(=O)N(C)[C@@H](C(C)C)C(=O)O[C@@H]2C)c(N)c1=O` [Actinomycin D] (I: T[dV]P[Sar][NMeV] / II: T[dV]P[Sar][NMeV]; ester I:1-I:C, II:1-II:C; linker I:N-II:N via Actinocin(9to1)), in assay [1], the “survival / protection of SD-neurons” value is given as “promote survival”. Further, in assay [1] (setting [6]), the Survival entry is on record as “Yes”. In assay [2], the “terminal nuclear alterations and PMP in VP16-treated Jurkat cells” value is listed as “prevent neither ΔΨm loss nor PMP”; the “ΔΨm loss in VP16-treated Jurkat cells” value was “prevent neither ΔΨm loss nor PMP”.
In the case of `COc1cccc(-c2cc(=O)c3ccccc3o2)c1N` [PD 98059], in assay [1] (setting [6]), the Survival result is given as “No”.
With `Oc1ccc(-c2nc(-c3ccncc3)c(-c3ccc(F)cc3)[nH]2)cc1` [SB 202190], in assay [1] (setting [6]), the Survival result is “No”.
In the case of `N#CC(C#N)=NNc1cccc(Cl)c1` [mClCCP, carbonyl cyanide m-chlorophenylhydrazone], the “ΔΨm and PMP state of non-trypsinized neurons (FM)” value in assay [4] is reported as “induces ΔΨm disruption”. For the same compound, the “time of treatment at which ΔΨm loss of neuronal population is maximal” value in assay [4] (real-time FC, 100 μM) was determined as 2 min.
For “N-benzyloxycarbonyl-Phe-Ala-fluoromethylketone [z-FA-fmk]”, the Survival entry in assay [1] (setting [6]) is listed as “No”.
On the same count and under the same terms, under `O=S(=O)([O-])c1cc(N=C=S)ccc1C=Cc1ccc(N=C=S)cc1S(=O)(=O)[O-].[Na+].[Na+]` [DIDS, 4,4′-Diisothiocyanastilbene-2,2′-disulfonic acid disodium salt] stands “No”.
`CO/C1=C\C(C)=C\[C@@H](C)[C@@H](O)[C@@H](C)C/C(C)=C/C=C/[C@H](OC)[C@@H]([C@@H](C)[C@@H](O)[C@H](C)[C@@]2(O)C[C@@H](O)[C@H](C)[C@@H](C(C)C)O2)OC1=O` [Bafilomycin A1]: the Survival result in assay [1] (setting [6]) is listed as “No”.
Same read-out and setting: the value for `CC(=O)N[C@@H](CS)C(=O)O` [N-Acetyl-Cystein] was “No”; that for Ruthenium Red was “No”.
The same measure, in the same setting: under `CCCCCCCCCCC1=C(C)C(=O)C(OC)=C(OC)C1=O` [Decyl-Ubiquinone] stands “No”.
For `CCO` [ethanol], in assay [4], the “ΔΨm and PMP state of non-trypsinized neurons (FM)” value is “induces a rapid PMP”. Also, in assay [4] (real-time FC, after 5 minutes), the PMP is 98% and the ΔΨm loss is 75%.
`CC1CNCCN1S(=O)(=O)c1cccc2cnccc12` (stereo not drawn) [H-7]: the Survival result in assay [1] (setting [6]) was “No”.
For the compound `O=c1c(-c2ccc(O)cc2)coc2cc(O)cc(O)c12` [Genistein], the Survival entry in assay [1] is “No”.
With `COC(=O)C[C@H](NC(=O)[C@H](C)NC(=O)[C@@H](NC(=O)[C@H](CC(=O)OC)NC(=O)[C@@H](NC(=O)c1ccc2ccccc2n1)C(C)C)C(C)C)C(=O)COc1c(F)cccc1F` [Q-VDVAD-OPH, Quinolinylcarnonyl-L-Valinyl-L-Aspartyl (methyl ester)-X-Vanilyl-L-Alaninyl-L-Aspartyl (methyl ester) 2,6-difluorophenyl ester] (Quinaldoyl-VD(OMe)VA-X1), the “survival / protection of SD-neurons” value in assay [1] was “promotes survival of cortical neurons”. Moreover, the “inhibition of VDVAD-AMC cleavage by recombinant caspase-2” value in assay [3] was “blocked”. Further, the “infarct volume (% damage in the lesioned ipsilateral hemisphere)” value in assay [5] (single i.p. dose before ischemia, 48 hours, mean ±SEM) is 5.7±2.3%. In assay [5] (single i.p. dose before the ischemic onset, 48 hours after ischemia, vs ischemic control), the “reduction in infarct volume” value was determined as 74%. In assay [5] (single i.p. dose, 48 hours), the “animals (of the 12 studied) with a very marked smaller infarct” value is 8, the “mean infarct of the four other animals” value came to 16.5±1.32% and the “median infarct of the 8 animals with a very marked smaller infarct” value worked out at 0.5%. Also, the “animals that exhibited no infarct” value in assay [5] (single i.p. dose, 48 hrs after ischemia) is given as 8.
`CC(=O)OCOC(=O)CN(CC(=O)OCOC(C)=O)c1ccccc1OCCOc1ccccc1N(CC(=O)OCOC(C)=O)CC(=O)OCOC(C)=O` [BAPTA-AM, acetoxymethyl ester of 1,2-bis(2-aminophenoxy)ethane-N,N,N′,N′-tetraacetic acid]: the Survival entry in assay [1] is “No”.
Take `C=C1[C@@H](O)[C@@H]2O[C@]3(CC[C@H](/C=C/[C@@H](C)[C@@H]4CC(C)=C[C@@]5(O[C@H](C[C@@](C)(O)C(=O)O)CC[C@H]5O)O4)O3)CC[C@H]2O[C@@H]1[C@@H](O)C[C@H](C)[C@H]1O[C@@]2(CCCCO2)CC[C@H]1C` [Okadaic acid]: the Survival result in assay [1] (setting [6]) is reported as “No”.
Regarding `CC(=O)Oc1ccccc1C(=O)O` [Aspirin], the Survival result in assay [1] (setting [6]) is recorded as “No”.
Take `N[C@@H](CCC(=O)N[C@@H](CS)C(=O)NCC(=O)O)C(=O)O` [glutathion]: in assay [1] (setting [6]), the Survival result was “No”.
Consider `CC[C@H](CO)Nc1nc(NCc2ccccc2)c2ncn(C(C)C)c2n1` [Roscovitine], for which, in assay [1], the Survival entry is given as “No”.
As to `CCC(=C/[C@H](C)C/C=C/C(C)=C/[C@@H](C)C(=O)[C@@H](C)[C@H](O)[C@@H](C)C/C(C)=C/C(=O)O)/C=C/[C@@H]1OC(=O)C=C[C@@H]1C` [Leptomycin B], in assay [1] (setting [6]), the Survival result was “No”.
As for `Cn1cnc(N)c2ncnc1-2` [3-Methyladenine], the Survival entry in assay [1] (setting [6]) is on record as “No”.
With `CC(C)[C@H](CO)Nc1nc(Nc2cc(N)cc(Cl)c2)c2ncn(C(C)C)c2n1` [Aminopurvalanol], the Survival entry in assay [1] (setting [6]) was “No”.
In the case of `Cc1c(C)c2c(c(C)c1O)CCC(C)(C(=O)O)O2` (stereo not drawn) [Trolox ®], the Survival result in assay [1] (setting [6]) was “No”.
Turning to `CN1CC=C(c2ccccc2)CC1` [MPTP, 1-methyl-4-phenyl-1,2,3,6-tetrahydropyridine], in assay [4], the “ΔΨm and PMP state of non-trypsinized neurons (FM)” value is recorded as “most neurons are ΔΨm low without any sign of PMP”. This compound came in with a ΔΨm low neurons in assay [4] (real-time FC, after 15 minutes of treatment) of 49.6%.

These data come from patent publication US20120329721A1, “MEANS FOR PREVENTING AND TREATING CELLULAR DEATH AND THEIR BIOLOGICAL APPLICATIONS” (CHIESI FARMACEUTICI S.P.A., priority 2003, published 2012).
